According to patent US9909219B2, “Slurry biocide” (ECOLAB USA INC., priority 2014, dated 2018):

Tests used:
[1] = tested on: Sulfate Reducing Bacteria; assay: Biocide treatment of pipeline makeup water (river water): sulfate reducing bacteria count; assay type: cell-based
Source text: (§1) Two water samples collected directly of makeup water of a pipeline sourced form river water, were submitted to biocide treatment. One sample was highly contaminated with microorganisms (1700 CFU/mL) while the other was less contaminated (120 CFU/mL). […] There is a dramatic reduction in required dosage using oxidizing biocide ([…]) (Tests 3, 4 and 7).

Total Aerobic Bacteria = assay: Biocide treatment of pipeline makeup water (river water): total aerobic bacteria count; assay type: cell-based
Source text: as §1

[O][Cl+][O-] [ClO2, chlorine dioxide]
Final Count Sulfate Reducing Bacteria ([1]; Test 3, initial count 30 CFU/mL, dosage 5 ppm): <10 CFU/mL | Final Count Sulfate Reducing Bacteria ([1]; Test 4, initial count <10 CFU/mL, dosage 4 ppm): <10 CFU/mL | Final Count Sulfate Reducing Bacteria ([1]; Test 7, initial count <10 CFU/mL, dosage 1.5 ppm): <10 CFU/mL | Final Count Total Aerobic Bacteria (Total Aerobic Bacteria; Test 3, initial count 1700 CFU/mL, dosage 5 ppm): 30 CFU/mL | Final Count Total Aerobic Bacteria (Total Aerobic Bacteria; Test 4, initial count 120 CFU/mL, dosage 4 ppm): <27 CFU/mL | Final Count Total Aerobic Bacteria (Total Aerobic Bacteria; Test 7, initial count 120 CFU/mL, dosage 1.5 ppm): <27 CFU/mL

O=CCCCC=O [A, Glutaraldehyde]
Final Count Sulfate Reducing Bacteria ([1]; Test 1, initial count 30 CFU/mL, dosage 500 ppm): 10 CFU/mL | Final Count Sulfate Reducing Bacteria ([1]; Test 5, initial count <10 CFU/mL, dosage 500 ppm): <10 CFU/mL | Final Count Total Aerobic Bacteria (Total Aerobic Bacteria; Test 1, initial count 1700 CFU/mL, dosage 500 ppm): 330 CFU/mL | Final Count Total Aerobic Bacteria (Total Aerobic Bacteria; Test 5, initial count 120 CFU/mL, dosage 500 ppm): <27 CFU/mL
